This is an account of results in patent US20230021448A1, “COMPOUNDS AND COMPOSITIONS FOR TREATING CONDITIONS ASSOCIATED WITH STING ACTIVITY” (IFM Due, Inc., priority 2019, published 2023).

The structures appear in SMILES notation.

The target of the test is T1, STING (Homo sapiens, UniProt Q86WV6, G230A/H232R/R293Q/R71H).
T1 construct: host or cells: THP1-Dual KO-IFNAR2 cells
T1 sequence (Q86WV6 whole entry R71H/G230A/H232R/R293Q): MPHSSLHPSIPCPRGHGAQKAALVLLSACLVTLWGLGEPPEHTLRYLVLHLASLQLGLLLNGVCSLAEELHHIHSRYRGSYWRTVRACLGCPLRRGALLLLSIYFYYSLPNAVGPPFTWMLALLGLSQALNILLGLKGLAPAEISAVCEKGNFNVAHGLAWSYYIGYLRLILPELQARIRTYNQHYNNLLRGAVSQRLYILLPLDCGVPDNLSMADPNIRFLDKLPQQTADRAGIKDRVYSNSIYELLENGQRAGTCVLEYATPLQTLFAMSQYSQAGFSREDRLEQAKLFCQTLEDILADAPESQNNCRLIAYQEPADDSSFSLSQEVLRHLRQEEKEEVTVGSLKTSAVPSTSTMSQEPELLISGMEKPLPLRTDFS
Nature of the test: STING reporter assay: luciferase reporter activity in THP1-Dual KO-IFNAR2 cells stimulated with 2'3'cGAMP. The format is cell-based. To be noted: 2′3′cGAMP 15 μM final, 24h, read-out: hSTING: EC50. As to the method:
STING pathway activation by the compounds described herein was measured using THIP1-Dua1™ cells (KO-IFNAR2).
TTIP1-Dual™ KO-IFNAR2 Cells (obtained from invivogen) were maintained in RPMI, 10% FCS, 5 ml P/S, 2 mM L-glut, 10 mM Hepes, and 1 mM sodium pyruvate. Compounds were spotted in empty 384 well tissue culture plates (Greiner 781182) by Echo for a final concentration of 0.0017-100 μM. Cells were plated into the TC plates at 40 μL per well, 2×10E6 cells/mL. For activation with STING ligand, 2′3′cGAMP (MW 718.38, obtained from Invivogen), was prepared in Optimem media.
The following solutions were prepared for each 1×384 plate: • Solution A: 2 mL Optimem with one of the following stimuli: • […] • Solution B: 2 mL Optimem with 60 μL Lipofectamine 2000->Incubate 5 min at RT
2 mL of solution A and 2 ml Solution B was mixed and incubated for 20 min at room temperature (RT). 20 uL of transfection solution (A+B) was added on top of the plated cells, with a final 2′3′cGAMP concentration of 15 μM. The plates were then centrifuged immediately at 340 g for 1 minute, after which they were incubated at 37° C., 5% C02, >98% humidity for 24h. Luciferase reporter activity was then measured. EC50 values were calculated by using standard methods known in the art.
Luciferase reporter assay: 10 μL of supernatant from the assay was transferred to white 384-plate with flat bottom and squared wells. One pouch of QUANTI-Luc™ Plus was dissolved in 25 mL of water. 100 μL of QLC Stabilizer per 25 mL of QUANTI-Luc™ Plus solution was added. 50 μL of QUANTI-Luc™ Plus/QLC solution per well was then added. Luminescence was measured on a Platereader (e.g., Spectramax I3X (Molecular Devices GF3637001)).
Luciferase reporter activity was then measured. EC50 values were calculated by using standard methods known in the art.
What is called EC50 is the concentration that produces a half-maximal response. For `O=C(NCc1ccc(C(F)(F)F)c(Cl)c1)C(=O)Nc1c[nH]c2ccccc12` [Compound 171], the concentration for a half-maximal effect (EC50) is 0.2 to 1 µM. Take `O=C(Nc1c[nH]c2cc(F)c(F)cc12)C(=O)N1CCC(Cc2ccc(C(F)(F)F)cc2)CC1` [Compound 251]: the EC50 was in the range of 1 to 5 µM. Regarding `C[C@H](NC(=O)C(=O)Nc1c[nH]c2cc(F)c(F)cc12)c1cc(C(F)(F)F)c(Cl)cn1` (stereo in doubt) [Compound 259], the EC50 was 0.04 to 0.2 µM.

In the case of `CCC1CCC(NC(=O)C(=O)Nc2c[nH]c3cc(F)c(F)cc23)CC1` (centres unmarked) [Compound 113], the EC50 was 0.2 to 1 µM. As to `O=C(NCc1cnc(C2CCC(F)(F)CC2)c(F)c1)C(=O)Nc1c[nH]c2cc(F)c(F)cc12` [Compound 333], the EC50 fell in the range of 0.2 to 1 µM. As for `O=C(Nc1c[nH]c2cc(F)c(F)cc12)C(=O)N1CCN(CCc2ccc(C(F)(F)F)cc2)CC1` [Compound 216], the EC50 lay in the range of 1 to 5 µM.

With `O=C(Nc1c[nH]c2cc(F)c(F)cc12)C(=O)NC1CCC2(CCCC2)CC1` [Compound 314], the concentration giving a half-maximal response (EC50) fell in the range of 0.2 to 1 µM. On to `Cc1cc(NC(=O)C(=O)Nc2c[nH]c3ccccc23)cc(C(F)(F)F)c1` [Compound 183], for which the EC50 lay in the range of 0.2 to 1 µM. As for `O=C(Nc1c[nH]c2cc(F)c(F)cc12)C(=O)N[C@H]1C[C@H](Oc2ccc(C(F)(F)F)cn2)C1` [Compound 210], the EC50 was 0.2 to 1 µM. Turning to `O=C(Nc1ccc(C(F)(F)F)cc1)C(=O)Nc1c[nH]c2ccc(F)cc12` [Compound 184], the EC50 is 0.2 to 1 µM. In the case of `Cc1ccc(CNC(=O)C(=O)Nc2c[nH]c3cc(F)c(F)c(Br)c23)cc1C(F)(F)F` [Compound 242], the EC50 lay within 5 to 100 µM. The value for `CC(CN(C)c1ccccc1)NC(=O)C(=O)Nc1c[nH]c2cc(F)c(F)cc12` (centres unmarked) [Compound 328] was 0.2 to 1 µM; that for `Cn1cc(NC(=O)C(=O)NCc2ccc(C(F)(F)F)c(Cl)c2)c2cc(F)c(F)cc21` [Compound 170] was 5 to 100 µM; that for `O=C(Nc1c[nH]c2cc(F)c(F)cc12)C(=O)NC1CCC(Oc2ccc(C(F)(F)F)cn2)C1` (centres unmarked) [Compound 221] was 0.2 to 1 µM.

In the case of `O=C(Nc1ccc(C(F)(F)F)cc1)C(=O)Nc1c[nH]c2ccc(I)cc12` [Compound 263], the EC50 was 0.2 to 1 µM. For `O=C(NCc1cccc(N2CCCCC2)n1)C(=O)Nc1c[nH]c2cc(F)c(F)cc12` [Compound 326] the value was 0.2 to 1 µM; for `O=C(Nc1c[nH]c2cc(F)c(F)cc12)C(=O)NC1CC2CCC(C1)C2Oc1ccc(C(F)(F)F)cc1` (centres unmarked) [Compound 205], 1 to 5 µM; for `O=C(Nc1c[nH]c2cc(F)c(F)cc12)C(=O)N[C@H]1CC[C@H](OCC(F)F)CC1` [Compound 174], 0.2 to 1 µM. The value for `O=C(NCc1ccc(C(F)(F)F)cn1)C(=O)Nc1c[nH]c2cc(F)c(F)cc12` [Compound 119, N-(5,6-difluoro-1H-indol-3-yl)-N′-[[5-(trifluoromethyl)pyridin-2-yl]methyl]ethanediamide] was 0.04 to 0.2 µM; that for `Cc1cc2c(cn1)C(NC(=O)C(=O)Nc1c[nH]c3cc(F)c(F)cc13)CCC2` (centres unmarked) [Compound 323] was 0.2 to 1 µM. For `O=C(Nc1c[nH]c2cc(F)c(F)cc12)C(=O)NC1CCN(Cc2ccccc2)C2(CCCCC2)C1` (centres unmarked) [Compound 256] the value was 1 to 5 µM; for `CC(CN(C)c1ccccc1)NC(=O)C(=O)Nc1c[nH]c2cc(F)c(F)cc12` (single isomer, unassigned) [Compound 320], 0.2 to 1 µM. For the compound `C#Cc1ccc(NC(=O)C(=O)Nc2c[nH]c3cc(F)c(F)cc23)cc1` [Compound 182], the EC50 lay in the range of 0.2 to 1 µM.

`O=C(Nc1c[nH]c2cc(F)c(F)cc12)C(=O)NC1CCC2(CCCCC2)C1` (single isomer, unassigned) [Compound 247]: the EC50 is 0.2 to 1 µM.

For `O=C(NCC(c1ccccc1)C(F)F)C(=O)Nc1c[nH]c2cc(F)c(F)cc12` (single isomer, unassigned) [Compound 347], the EC50 was in the range of 0.2 to 1 µM.

Consider `O=C(NCC1CC2C=CC1C2)C(=O)Nc1c[nH]c2cc(F)c(F)cc12` (centres unmarked) [Compound 111], for which the EC50 was in the range of 0.2 to 1 µM. In the case of `O=C(Nc1ccc(C2CCCCC2)nc1)C(=O)Nc1c[nH]c2cc(F)c(F)cc12` [Compound 104], the EC50 lay in the range of 0.2 to 1 µM.

Turning to `O=C(Nc1c[nH]c2ccc(Cl)cc12)C(=O)N[C@H]1C[C@H](Oc2ccccn2)C1` [Compound 212], the EC50 fell in the range of 0.2 to 1 µM. For the compound `O=C(NCCCOc1ccc(C(F)(F)F)nc1)C(=O)Nc1c[nH]c2cc(F)c(F)cc12` [Compound 200], the EC50 fell in the range of 0.2 to 1 µM.

Take `O=C(Nc1cnc(-n2nccn2)c(C(F)(F)F)c1)C(=O)Nc1c[nH]c2cc(F)c(F)cc12` [Compound 238, N1-(6-(2H-1,2,3-triazol-2-yl)-5-(trifluoromethyl)pyridin-3-yl)-N2-(5,6-difluoro-1H-indol-3-yl)oxalamide]: the EC50 was in the range of 1 to 5 µM. As to `O=C(Nc1c[nH]c2cc(F)c(F)cc12)C(=O)NC1COc2ccccc2C1` (centres unmarked) [Compound 301, N-(5,6-difluoro-1H-indol-3-yl)-N′-(3,4-dihydro-2H-1-benzopyran-3-yl)ethanediamide], the EC50 lay within 0.2 to 1 µM. With `O=C(NCCOc1ccc(C(F)(F)F)nc1)C(=O)Nc1c[nH]c2cc(F)c(F)cc12` [Compound 327], the EC50 lay in the range of 0.2 to 1 µM. For `O=C(Nc1c[nH]c2cc(F)c(F)cc12)C(=O)NC1CC(Oc2ccc(C(F)(F)F)cn2)C1` (centres unmarked) [Compound 226] the value was 0.04 to 0.2 µM.

As to `O=C(Nc1c[nH]c2cc(F)c(F)cc12)C(=O)NC1CCC2(CCCC2)C1` (centres unmarked) [Compound 279], the EC50 lay in the range of 0.2 to 1 µM. For `CN(CCNC(=O)C(=O)Nc1c[nH]c2cc(F)c(F)cc12)c1ccccc1` [Compound 331] the value was 0.2 to 1 µM; for `O=C(NCc1cc(C(F)(F)F)c(Cl)cn1)C(=O)Nc1c[nH]c2cc(F)c(F)cc12` [Compound 335], 0.04 to 0.2 µM; for `Cc1ccc(CNC(=O)C(=O)Nc2c[nH]c3cc(F)c(F)cc23)cc1C(F)(F)F` [Compound 107], 0.04 to 0.2 µM.

`O=C(NC[C@H](C(F)F)C1CCCCC1)C(=O)Nc1c[nH]c2cc(F)c(F)cc12` [Compound 136]: the EC50 was 0.04 to 0.2 µM. For `CC(C)(C)OC(=O)N1CC2CC(NC(=O)C(=O)Nc3c[nH]c4cc(F)c(F)cc34)CC2C1` (centres unmarked) [Compound 267, tert-butyl 5-{[(5,6-difluoro-1H-indol-3-yl)carbamoyl] formamido}-octahydrocyclopenta[c] pyrrole-2-carboxylate] the value was 0.2 to 1 µM; for `O=C(NCCC1(C(F)(F)F)CC1)C(=O)Nc1c[nH]c2cc(F)c(F)cc12` [Compound 152, N1-(5,6-difluoro-1H-indol-3-yl)-N2-(2-(1-(trifluoromethyl)cyclopropyl)ethyl)oxalamide], 0.2 to 1 µM; for `O=C(NCc1ccc(Cl)c(C(F)(F)F)n1)C(=O)Nc1c[nH]c2cc(F)c(F)cc12` [Compound 334], 0.2 to 1 µM.

In the case of `O=C(NCCOC1CCCC1)C(=O)Nc1c[nH]c2cc(F)c(F)cc12` [Compound 305, N'-[2-(cyclopentyloxy)ethyl]-N-(5,6-difluoro-1H-indol-3-yl)ethanediamide], the EC50 is 0.2 to 1 µM. On to `O=C(NCC(F)(F)c1ccccc1)C(=O)Nc1c[nH]c2cc(F)c(F)cc12` [Compound 155, N1-(5,6-difluoro-1H-indol-3-yl)-N2-(2,2-difluoro-2-phenylethyl) oxalamide], for which the EC50 is 0.2 to 1 µM. Consider `O=C(Nc1c[nH]c2cc(F)c(F)cc12)C(=O)NC1CCOC2(CCCC2)C1` (single isomer, unassigned) [Compound 243], for which the concentration giving a half-maximal response (EC50) was in the range of 1 to 5 µM. `O=C(Nc1c[nH]c2cc(F)c(F)cc12)C(=O)NC1CCC(Cc2ccccc2)CC1` (centres unmarked) [Compound 122]: the concentration for a half-maximal effect (EC50) lay in the range of 0.2 to 1 µM. For `O=C(Nc1c[nH]c2cc(F)c(F)cc12)C(=O)NC1CCOC2(CCCC2)C1` (single isomer, unassigned) [Compound 244] the value was 1 to 5 µM; for `Cc1ccc(CNC(=O)C(=O)Nc2c[nH]c3ccc(-c4cccc(CO)c4)cc23)cc1C(F)(F)F` [Compound 134], 0.2 to 1 µM.

Regarding `O=C(NCC1COc2ccccc2O1)C(=O)Nc1c[nH]c2cc(F)c(F)cc12` (centres unmarked) [Compound 261, N-(5,6-difluoro-1H-indol-3-yl)-N′-[(2,3-dihydro-1,4-benzodioxin-2-yl)methyl] ethanediamide], the EC50 fell in the range of 0.2 to 1 µM. The value for `CC(COc1ccc(C(F)(F)F)cc1)NC(=O)C(=O)Nc1c[nH]c2cc(F)c(F)cc12` (centres unmarked) [Compound 276, N-(5,6-difluoro-1H-indol-3-yl)-N′-{1-[4-(trifluoromethyl)phenoxy]propan-2-yl}ethanediamide] was 0.2 to 1 µM. As for `O=C(NCc1ccc(F)c(OC(F)(F)F)c1)C(=O)Nc1c[nH]c2cc(F)c(F)cc12` [Compound 131, N1-(5,6-difluoro-1H-indol-3-yl)-N2-(4-fluoro-3-(trifluoromethoxy)benzyl) oxalamide], the EC50 lay within 0.2 to 1 µM.
